Like-named read-outs stand apart in the source and are kept apart here.
Biological target: P2X7 receptor (Homo sapiens (Human), UniProt Q99572)
Assay: P2X7 FLIPR assay (BzATP-stimulated calcium fluorescence, antagonist IC50)
Type: cell-based
Method in brief: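 Cells expressing P2X7 receptor (human, rat or mouse), plated 24 hours earlier in low-serum medium, loaded with Fluo-4 NW dye (30 min 37° C, 30 min room temperature).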

Sequence of P2X7 receptor (Q99572 whole entry): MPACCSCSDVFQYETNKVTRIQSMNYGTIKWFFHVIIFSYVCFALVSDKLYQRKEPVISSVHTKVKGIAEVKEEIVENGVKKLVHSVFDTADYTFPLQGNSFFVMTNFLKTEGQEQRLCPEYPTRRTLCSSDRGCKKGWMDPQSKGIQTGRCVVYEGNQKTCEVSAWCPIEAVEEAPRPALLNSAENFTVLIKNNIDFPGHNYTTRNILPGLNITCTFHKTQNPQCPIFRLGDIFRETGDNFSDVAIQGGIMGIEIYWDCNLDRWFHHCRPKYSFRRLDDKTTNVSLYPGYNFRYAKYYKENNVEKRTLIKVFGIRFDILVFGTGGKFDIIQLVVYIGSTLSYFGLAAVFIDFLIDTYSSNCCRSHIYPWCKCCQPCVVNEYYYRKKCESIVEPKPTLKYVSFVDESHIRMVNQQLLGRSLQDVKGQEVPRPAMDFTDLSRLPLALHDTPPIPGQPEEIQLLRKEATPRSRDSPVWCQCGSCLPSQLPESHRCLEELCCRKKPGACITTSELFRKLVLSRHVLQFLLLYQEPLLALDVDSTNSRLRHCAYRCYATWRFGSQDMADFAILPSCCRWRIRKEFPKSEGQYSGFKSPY

| Molecule | IC50 | other results |
| --- | --- | --- |
| O=C(NCC(CC1CC1)c1ccc(C(F)F)nc1)c1ccccc1Cl (single isomer, unassigned; (-)) [(−)2-chloro-N-[3-cyclopropyl-2-[6-(difluoromethyl)-3-pyridyl] [(−)2-chloro-N-[3-cyclopropyl-2-[6-(difluoromethyl)-3-pyridyl]propyl]benzamide] | 0.017 µM |  |
| O=C(NCC1(c2ccc(F)nc2)CCC(F)(F)CC1)c1cccc(Cl)c1Cl [2,3-dichloro-N-[[4,4-difluoro-1-(6-fluoro-3-pyridyl)cyclohexyl]methyl]benzamide] | 0.00028 µM |  |
| COc1cccc(C(=O)NCC(CC2CC2)c2cnc(C(F)(F)F)nc2)c1C (single isomer, unassigned; (+)) [(+)N-[3-cyclopropyl-2-[2-(trifluoromethyl)pyrimidin-5-yl]pro] [(+)N-[3-cyclopropyl-2-[2-(trifluoromethyl)pyrimidin-5-yl]propyl]-3-methoxy-2-methyl-benzamide] | 0.009 µM |  |
| O=C(NCC(CC1CC1)c1cnc(C(F)(F)F)nc1)c1c(F)cccc1Cl (stereo not drawn) [2-chloro-N-(3-cyclopropyl-2-(2-(trifluoromethyl)pyrimidin-5-] [2-chloro-N-(3-cyclopropyl-2-(2-(trifluoromethyl)pyrimidin-5-yl)propyl)-6-fluorobenzamide] | 0.022 µM |  |
| O=C(NCC1(c2ccc(Cl)cc2)CCOCC1)c1cc(F)ccc1F [N-[4-(4-Chloro-phenyl)-tetrahydro-pyran-4-ylmethyl]-2,5-difluoro-benzamide] | 3 µM |  |
| O=C(NCC(c1ccccc1)c1ccc(C(F)(F)F)nc1)c1c(Cl)cccc1Cl (single isomer, unassigned; (+)) [(+)2,6-dichloro-N-[2-phenyl-2-[6-(trifluoromethyl)-3-pyridyl] [(+)2,6-dichloro-N-[2-phenyl-2-[6-(trifluoromethyl)-3-pyridyl]ethyl]benzamide] | 0.012 µM |  |
| O=C(NCC1(c2ccc(F)nc2)CCC(F)(F)CC1)c1cc(Cl)ccc1Cl [2,5-dichloro-N-((4,4-difluoro-1-(6-fluoropyridin-3-yl)cyclohexyl)methyl)benzamide] | 0.0023 µM |  |
| Cc1ncc(C2(CNC(=O)c3cccc(Cl)c3Cl)CCOC2)cn1 (stereo not drawn) [2,3-dichloro-N-((3-(2-methylpyrimidin-5-yl)tetrahydrofuran-3-yl)methyl)benzamide] | 0.015 µM |  |
| O=C(NCC(c1ccncc1)c1ccc(C(F)(F)F)nc1)c1cccc(Cl)c1Cl (stereo not drawn) [2,3-dichloro-N-[2-(4-pyridyl)-2-[6-(trifluoromethyl)-3-pyridyl]ethyl]benzamide] | 0.2 µM |  |
| O=C(NCC(c1cnc(C(F)(F)F)nc1)C1CCC(F)(F)CC1)c1cccc(F)c1Cl (single isomer, unassigned; (+)) [(+)2-chloro-N-[2-(4,4-difluorocyclohexyl)-2-[2-(trifluoromet] [(+)2-chloro-N-[2-(4,4-difluorocyclohexyl)-2-[2-(trifluoromethyl)pyrimidin-5-yl]ethyl]-3-fluoro-benzamide] | 0.045 µM |  |
| O=C(NCC(c1ccccc1)c1ccnnc1)c1cccc(Cl)c1Cl (stereo not drawn) [2,3-dichloro-N-(2-phenyl-2-pyridazin-4-yl-ethyl)benzamide] | 0.094 µM |  |
| (−)2,3-dichloro-N-[3-cyclopropyl-2]benzamide | 0.0019 µM |  |
| Cc1ncc(C(CNC(=O)c2ccccc2Cl)C2CCOCC2)cn1 (single isomer, unassigned; (-)) [(−)2-chloro-N-[2-(2-methylpyrimidin-5-yl)-2-tetrahydropyran-] [(−)2-chloro-N-[2-(2-methylpyrimidin-5-yl)-2-tetrahydropyran-4-yl-ethyl]benzamide] | 0.57 µM |  |
| Cc1ccc(C(F)(F)F)cc1C(=O)NCC1(c2ccc(C(F)(F)F)nc2)CCC(F)(F)CC1 [N-((4,4-difluoro-1-(6-(trifluoromethyl)pyridin-3-yl)cyclohexyl)methyl)-2-methyl-5-(trifluoromethyl)benzamide] | 0.039 µM |  |
| Cc1c(C#N)cccc1C(=O)NCC1(c2ccc(C(F)(F)F)nc2)CCC(F)(F)CC1 [3-cyano-N-((4,4-difluoro-1-(6-(trifluoromethyl)pyridin-3-yl)cyclohexyl)methyl)-2-methylbenzamide] | 0.045 µM |  |
| O=C(NCC1(c2ccc(F)nc2)CCC(F)(F)CC1)c1cc(F)ccc1F [N-((4,4-difluoro-1-(6-fluoropyridin-3-yl)cyclohexyl)methyl)-2,5-difluorobenzamide] | 1.5 µM |  |
| O=C(NCC(CC1(C(F)(F)F)CC1)c1ccc(C2CC2)nc1)c1cccc(Cl)c1Cl (stereo not drawn) [2,3-dichloro-N-[2-(6-cyclopropyl-3-pyridyl)-3-[1-(trifluoromethyl)cyclopropyl]propyl]benzamide] | 0.015 µM |  |
| O=C(NCC(c1cnc(C(F)(F)F)nc1)C1CCOCC1)c1c(F)cccc1Cl (single isomer, unassigned; (-)) [(−)2-chloro-6-fluoro-N-[2-tetrahydropyran-4-yl-2-[2-(trifluo] [(−)2-chloro-6-fluoro-N-[2-tetrahydropyran-4-yl-2-[2-(trifluoromethyl)pyrimidin-5-yl]ethyl]benzamide] | 0.068 µM |  |
| O=C(NCC(c1ccncc1)c1cnc(C(F)(F)F)nc1)c1ccccc1Cl (stereo not drawn) [2-chloro-N-[2-(4-pyridyl)-2-[2-(trifluoromethyl)pyrimidin-5-yl]ethyl]benzamide] | 0.03 µM |  |
| Cc1ccccc1C(=O)NCC1(c2ccc(C(F)(F)F)nc2)CCC(F)(F)CC1 [N-((4,4-difluoro-1-(6-(trifluoromethyl)pyridin-3-yl)cyclohexyl)methyl)-2-methylbenzamide] | 0.0026 µM |  |
| Cc1ccc(C2(CNC(=O)c3cccc(Cl)c3Cl)CCC(F)(F)CC2)cn1 | 0.0073 µM |  |
| O=C(NCC(CC1CC1)c1ccc(F)nc1)c1ccccc1Cl (single isomer, unassigned; (-)) [Example 4x, (−)-2-chloro-N-(3-cyclopropyl-2-(6-fluoropyridin-3-yl)propyl)benzamide] |  | IC50 (listed as (−)2-chloro-N-[3-cyclopropyl-2-(6-fluoro-3-pyridyl)propyl]benzamide): 0.016 µM |
| O=C(NCC(CC1CC1)c1ccc(F)nc1)c1ccccc1Cl (single isomer, unassigned; (+)) [Example 4w, (+)-2-chloro-N-(3-cyclopropyl-2-(6-fluoropyridin-3-A)propyl)benzamide] |  | IC50 (listed as (+)2-chloro-N-[3-cyclopropyl-2-(6-fluoro-3-pyridyl)propyl]benzamide): 0.51 µM |
| O=C(NCC(c1ccc(F)cc1)c1ccc(C(F)(F)F)nc1)c1c(F)cccc1Cl (single isomer, unassigned; (-)) [(−)2-chloro-6-fluoro-N-[2-(4-fluorophenyl)-2-[6-(trifluorome] [(−)2-chloro-6-fluoro-N-[2-(4-fluorophenyl)-2-[6-(trifluoromethyl)-3-pyridyl]ethyl]benzamide] | 0.0085 µM |  |
| Cc1ccccc1C(=O)NCC1(c2ccc(Cl)cc2)CCN(C)CC1 [N-[4-(4-Chloro-phenyl)-1-methyl-piperidin-4-ylmethyl]-2-methyl-benzamide] | 0.06 µM |  |
| O=C(NCC(CC1(C(F)(F)F)CC1)c1ccc(C(F)(F)F)nc1)c1cccc(F)c1Cl (single isomer, unassigned; (-)) [(−)2-chloro-3-fluoro-N-[3-[1-(trifluoromethyl)cyclopropyl]-2] [(−)2-chloro-3-fluoro-N-[3-[1-(trifluoromethyl)cyclopropyl]-2-[6-(trifluoromethyl)-3-pyridyl]propyl]benzamide] | 0.016 µM |  |
| N#Cc1ccccc1C(=O)NCC1(c2ccc(C(F)(F)F)nc2)CCC(F)(F)CC1 [2-cyano-N-((4,4-difluoro-1-(6-(trifluoromethyl)pyridin-3-yl)cyclohexyl)methyl)benzamide] | 0.15 µM |  |

Source: patent US9102591B2, “Benzamides” (H. Lundbeck A/S, priority 2012, dated 2015)
